The source of these data is patent publication US10010525B2, “Methods of inducing anesthesia” (The Regents of the University of California, priority 2012, dated 2018).

Molecules are shown by their SMILES.

The test system of assay [1] is 3-transmembrane (TM3) and 4-transmembrane (TM4) receptors. The following applies: grouped by calculated molar solubility in unbuffered water at 25° C.; cited from earlier work.
The target in assay [2] is T1, NMDA (NR1/NR2A) receptors (Rattus norvegicus, UniProt P35439+Q00959).
T1 construct: expressed in transfected cells; host or cells: Xenopus laevis oocytes (RNA injection, 1:1)
The experiment in a line: NMDA receptor two-electrode voltage clamp in oocytes at saturated drug concentration. The format is cell-based. Conditions: for NMDA % Direct Effect: drug response without receptor agonist; for NMDA % Direct Effect / NMDA % Agonist Effect: percent of control agonist peak, mean ±SEM, 5-6 oocytes, saturated drug; for NMDA % Agonist Effect: drug with glutamate and glycine; for NMDA Drug Response: drug+agonist versus control agonist peak. An excerpt:
(§1) GABAA (α1β2γ2s) or NMDA (NR1/NR2A) receptors were expressed in oocytes and studied using standard two-electrode voltage clamp techniques. Hydrocarbons from 14 different organic functional groups were studied at saturated concentrations, and compounds within each group differed only by the carbon number at the ω-position or within a saturated ring. An effect on GABAA or NMDA receptors was defined as a 10% or greater reversible current change from baseline that was statistically different from zero.
(§2) An ovary from tricaine-anesthetized Xenopus laevis frogs was surgically removed using a protocol approved by the Institutional Animal Care and Use Committee at the University of California, Davis. Following manual disruption of the ovarian lobule septae, the ovary was incubated in 0.2% Type I collagenase (Worthington Biochemical, Lakewood, N.J.) to defolliculate oocytes which were washed and stored in fresh and filtered modified Barth's solution composed of 88 mM NaCl, 1 mM KCl, 2.4 mM NaHCO3, 20 mM HEPES, 0.82 mM MgSO4, 0.33 mM Ca(NO3)2, 0.41 mM CaCl2, 5 mM sodium pyruvate, gentamycin, penicillin, streptomycin, and corrected to pH=7.4. All salts and antibiotics were A.C.S. grade (Fisher Scientific, Pittsburgh, Pa.).
(§3) Clones used were provided as a gift from Dr. R. A. Harris (University of Texas, Austin) and were sequenced and compared to references in the National Center for Biotechnology Information database to confirm the identity of each gene. GABAA receptors were expressed using clones for the human GABAA α1 and the rat GABAA β2 and γ2s subunits in pCIS-II vectors. […] In separate oocytes, glutamate receptors were expressed using rat NMDA NR1 clones in a pCDNA3 vector and rat NMDA NR2A clones in a Bluescript vector. RNA encoding each subunit was prepared using a commercial transcription kit (T7 mMessage mMachine, Ambion, Austin, Tex.) was mixed in a 1:1 ratio, and 1-10 ng of total RNA was injected into oocytes and studied 1-2 days later.
Briefly, baseline perfusion solutions were the same as for GABAA with the substitution of equimolar BaCl2 for calcium salts and the addition of 0.1 mM EGTA; this constituted barium frog Ringer's solution (BaFR). Agonist solutions for NMDA studies also contained 0.1 mM glutamate (E) and 0.01 mM glycine (G) to constitute a BaFREG solution.
The syringe pump and perfusion chamber apparatus as well as the clamp holding potential and baseline-agonist exposure protocols were identical to that described for the GABAA studies. The same test compounds, concentrations, and preparative methods were used in NMDA voltage clamp studies as in the GABAA voltage clamp studies (Table 2).
(§4) Modulating drug responses were calculated as the percent of the control (baseline) peak as follows: 100·ID/IB, where ID and IB were the peak currents measured during agonist+drug and agonist baseline perfusions, respectively. When present, direct receptor activation by a drug was similarly calculated as a percent of the agonist response. […] A lack of receptor response (cut-off) was defined as a<10% change from baseline current that was statistically indistinguishable from zero using a two-tailed Student t-test.

Assay [3] deals with T2, GABAA (α1β2γ2s) receptors (UniProt P14867+P18508+P63138).
T2 construct: expressed in transfected cells; host or cells: Xenopus laevis oocytes (intranuclear plasmid injection, α1:β2:γ2 = 1:1:10)
The experiment in a line: GABAA receptor two-electrode voltage clamp in oocytes at saturated drug concentration. The format is cell-based, human α1, rat β2 and γ2s. The following applies: for GABAA % Direct Effect: drug response without receptor agonist; for GABAA % Direct Effect / GABAA % Agonist Effect: percent of control agonist peak, mean ±SEM, 5-6 oocytes, saturated drug; for GABAA % Agonist Effect: drug with γ-aminobutyric acid; for GABAA Drug Response: drug+agonist versus control agonist peak.
Description: as §1, §2, §3
Oocytes were studied in a 250 μL linear-flow perfusion chamber with solutions administered by syringe pump at 1.5 ml/min with gastight glass syringes and Teflon tubing. Oocyte GABAA currents were studied using standard two-electrode voltage clamping techniques at a holding potential of […] using a 250 μL channel linear-flow perfusion chamber with solutions administered by syringe pump at 1.5 mL/min.
After FR perfusion for 5 min, oocytes were exposed to 30 sec FR-GABA followed by another 5 min FR washout; this was repeated until stable GABAA-elicited peaks were obtained. Next, FR containing a saturated solution of the study drug (Table 2)—or for gaseous study compounds a vapor pressure equal to 90% of barometric pressure with balance oxygen—was used to perfuse the oocyte chamber for 2 min followed by perfusion with a FR-GABA solution containing the identical drug concentration for 30 sec.
as §4

T2 sequence (P14867 28-456): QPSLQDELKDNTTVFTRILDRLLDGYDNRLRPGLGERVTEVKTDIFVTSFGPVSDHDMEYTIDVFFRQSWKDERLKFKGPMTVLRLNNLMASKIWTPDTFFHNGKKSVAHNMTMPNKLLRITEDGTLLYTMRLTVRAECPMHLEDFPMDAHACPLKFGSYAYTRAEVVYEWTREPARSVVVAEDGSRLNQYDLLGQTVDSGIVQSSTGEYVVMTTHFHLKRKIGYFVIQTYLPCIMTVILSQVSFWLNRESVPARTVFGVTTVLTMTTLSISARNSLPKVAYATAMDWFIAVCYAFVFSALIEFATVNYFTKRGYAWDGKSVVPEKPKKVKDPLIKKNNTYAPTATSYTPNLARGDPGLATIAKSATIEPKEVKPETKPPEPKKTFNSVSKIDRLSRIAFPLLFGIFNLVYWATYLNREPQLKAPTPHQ
T2 sequence (P63138 25-474 limits assumed): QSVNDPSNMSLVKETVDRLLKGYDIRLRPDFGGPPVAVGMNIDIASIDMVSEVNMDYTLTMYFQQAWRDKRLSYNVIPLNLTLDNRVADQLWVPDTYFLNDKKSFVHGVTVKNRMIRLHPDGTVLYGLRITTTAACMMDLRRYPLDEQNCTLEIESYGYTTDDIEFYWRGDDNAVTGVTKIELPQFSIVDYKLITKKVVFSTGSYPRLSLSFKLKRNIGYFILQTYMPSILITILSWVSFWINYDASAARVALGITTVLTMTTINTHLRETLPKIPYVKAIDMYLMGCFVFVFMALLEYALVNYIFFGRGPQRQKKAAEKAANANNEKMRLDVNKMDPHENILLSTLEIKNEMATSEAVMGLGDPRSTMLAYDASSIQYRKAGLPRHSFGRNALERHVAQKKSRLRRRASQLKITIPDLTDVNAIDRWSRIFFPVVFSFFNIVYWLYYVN
T2 sequence (P18508 39-466): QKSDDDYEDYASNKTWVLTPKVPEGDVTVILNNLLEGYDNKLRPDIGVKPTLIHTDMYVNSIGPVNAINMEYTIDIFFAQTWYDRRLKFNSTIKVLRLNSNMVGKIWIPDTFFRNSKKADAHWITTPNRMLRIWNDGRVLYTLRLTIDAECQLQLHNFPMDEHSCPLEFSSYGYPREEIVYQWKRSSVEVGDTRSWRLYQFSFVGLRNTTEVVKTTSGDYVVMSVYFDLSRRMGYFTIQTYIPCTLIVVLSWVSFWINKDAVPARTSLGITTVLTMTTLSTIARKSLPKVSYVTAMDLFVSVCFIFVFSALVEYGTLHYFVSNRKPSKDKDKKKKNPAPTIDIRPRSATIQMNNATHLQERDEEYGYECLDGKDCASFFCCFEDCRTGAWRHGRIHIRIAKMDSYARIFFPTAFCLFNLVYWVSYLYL
T1 sequence (Q00959 23-1464, other chains not shown): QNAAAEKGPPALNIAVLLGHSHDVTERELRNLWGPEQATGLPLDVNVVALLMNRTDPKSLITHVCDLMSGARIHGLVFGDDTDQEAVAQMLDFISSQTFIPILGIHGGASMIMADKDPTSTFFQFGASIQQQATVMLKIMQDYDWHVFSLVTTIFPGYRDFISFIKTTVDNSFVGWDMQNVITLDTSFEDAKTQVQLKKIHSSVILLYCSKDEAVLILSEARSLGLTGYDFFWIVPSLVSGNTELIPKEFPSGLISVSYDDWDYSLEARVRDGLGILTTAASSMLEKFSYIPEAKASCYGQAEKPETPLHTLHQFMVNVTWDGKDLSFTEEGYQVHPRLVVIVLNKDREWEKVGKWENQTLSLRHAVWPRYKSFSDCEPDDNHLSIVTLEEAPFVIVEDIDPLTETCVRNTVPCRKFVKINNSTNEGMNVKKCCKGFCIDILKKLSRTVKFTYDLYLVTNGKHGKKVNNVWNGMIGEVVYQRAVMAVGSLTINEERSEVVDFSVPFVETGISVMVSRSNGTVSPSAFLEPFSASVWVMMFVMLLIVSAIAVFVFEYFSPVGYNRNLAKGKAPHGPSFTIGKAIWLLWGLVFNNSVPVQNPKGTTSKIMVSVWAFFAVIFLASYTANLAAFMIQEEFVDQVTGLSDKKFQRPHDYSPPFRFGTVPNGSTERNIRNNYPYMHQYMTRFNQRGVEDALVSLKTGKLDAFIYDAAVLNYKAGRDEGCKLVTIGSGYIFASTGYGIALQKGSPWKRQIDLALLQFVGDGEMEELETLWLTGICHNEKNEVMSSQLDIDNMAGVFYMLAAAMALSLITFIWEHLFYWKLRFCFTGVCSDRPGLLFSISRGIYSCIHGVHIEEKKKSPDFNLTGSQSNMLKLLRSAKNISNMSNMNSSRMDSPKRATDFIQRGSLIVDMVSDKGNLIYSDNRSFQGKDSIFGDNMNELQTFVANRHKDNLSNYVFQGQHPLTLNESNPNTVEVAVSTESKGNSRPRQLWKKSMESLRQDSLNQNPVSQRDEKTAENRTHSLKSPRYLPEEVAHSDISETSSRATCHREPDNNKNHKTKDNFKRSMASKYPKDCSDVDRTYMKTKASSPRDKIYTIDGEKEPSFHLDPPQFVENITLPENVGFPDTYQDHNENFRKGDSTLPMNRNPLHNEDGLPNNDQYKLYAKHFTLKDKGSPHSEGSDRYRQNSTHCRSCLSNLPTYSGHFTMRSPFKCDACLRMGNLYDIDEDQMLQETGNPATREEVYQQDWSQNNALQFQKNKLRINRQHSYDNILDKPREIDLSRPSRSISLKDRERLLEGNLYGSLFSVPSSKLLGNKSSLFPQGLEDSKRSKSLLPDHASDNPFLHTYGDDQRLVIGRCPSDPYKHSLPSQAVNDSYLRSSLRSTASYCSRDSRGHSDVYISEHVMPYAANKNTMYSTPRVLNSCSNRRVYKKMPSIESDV

In the case of `C1CC1` [cyclopropane], the “ion channel modulation, TM3 versus TM4 receptors (FIG. 2)” value in assay [1] was “modulate both 3-transmembrane (TM3) and TM4 receptors”.
`CCCCCCCCC` [nonane]: in assay [1], the “ion channel modulation, TM3 versus TM4 receptors (FIG. 2)” value was “modulate 4-transmembrane receptors (TM4) or neither receptor type”.
With `[N-]=[N+]=O` [nitrous oxide], in assay [1], the “ion channel modulation, TM3 versus TM4 receptors (FIG. 2)” value was “modulate both 3-transmembrane (TM3) and TM4 receptors”.
Consider `FC(F)OC(F)(F)C(F)Cl` (stereo not shown) [enflurane], for which, in assay [1], the “ion channel modulation, TM3 versus TM4 receptors (FIG. 2)” value is “modulate both 3-transmembrane (TM3) and TM4 receptors”.
In the case of `Cc1ncc2n1-c1ccc(Cl)cc1C(c1ccccc1F)=NC2` [midazolam], the “ion channel modulation, TM3 versus TM4 receptors (FIG. 2)” value in assay [1] is “modulate 4-transmembrane receptors (TM4) or neither receptor type”.
With `FCOC(C(F)(F)F)C(F)(F)F` [sevoflurane], the “ion channel modulation, TM3 versus TM4 receptors (FIG. 2)” value in assay [1] was “modulate both 3-transmembrane (TM3) and TM4 receptors”.
Consider `CCCCCCCCCCCO` [undecanol], for which the “ion channel modulation, TM3 versus TM4 receptors (FIG. 2)” value in assay [1] is on record as “modulate 4-transmembrane receptors (TM4) or neither receptor type”.
Consider `FC(F)OC(F)C(F)(F)F` (stereo not shown) [desflurane], for which, in assay [1], the “ion channel modulation, TM3 versus TM4 receptors (FIG. 2)” value is “modulate both 3-transmembrane (TM3) and TM4 receptors”.
For the molecule `CN1C(=O)CN=C(c2ccccc2)c2cc(Cl)ccc21` [diazepam], the “ion channel modulation, TM3 versus TM4 receptors (FIG. 2)” value in assay [1] is given as “modulate 4-transmembrane receptors (TM4) or neither receptor type”.
With `CCCCCCCCSCC` [1-(ethylthio)-octane], in assay [2], the “NMDA % Direct Effect” value is listed as “none”, the “NMDA % Agonist Effect” value was 101 ± 1% and the “NMDA Drug Response” value is 0 (no response (0) for drug+agonist responses that differ by <10% from the control agonist peak). Moreover, in assay [3], the “GABAA % Direct Effect” value was “none”, the “GABAA % Agonist Effect” value turned out to be 120 ± 3% and the “GABAA Drug Response” value was “+ (potentiation (+) for drug+agonist responses greater than the control agonist peak)”.
`CCO` [ethanol]: the “ion channel modulation, TM3 versus TM4 receptors (FIG. 2)” value in assay [1] is “modulate both 3-transmembrane (TM3) and TM4 receptors”.
For the molecule `CCCCCCCCCC=O` [decanal], in assay [2], the “NMDA % Direct Effect” value was “none”, the “NMDA % Agonist Effect” value is listed as 97 ± 3% and the “NMDA Drug Response” value is listed as 0 (no response (0) for drug+agonist responses that differ by <10% from the control agonist peak). Also, in assay [3], the “GABAA % Direct Effect” value is listed as “none”, the “GABAA % Agonist Effect” value was determined as 159 ± 5% and the “GABAA Drug Response” value is “+ (potentiation (+) for drug+agonist responses greater than the control agonist peak)”.
As to `FC1(F)C(F)(F)C(F)(Cl)C1(F)Cl` (stereo not shown) [1,2-dichlorohexafluorocyclobutane], in assay [1], the “ion channel modulation, TM3 versus TM4 receptors (FIG. 2)” value was “modulate 4-transmembrane receptors (TM4) or neither receptor type”.
Consider `C#CCCCCCC` [1-octyne], for which, in assay [2], the “NMDA % Direct Effect” value is reported as “none”, the “NMDA % Agonist Effect” value came to 96 ± 2% and the “NMDA Drug Response” value is recorded as 0 (no response (0) for drug+agonist responses that differ by <10% from the control agonist peak). In addition, in assay [3], the “GABAA % Direct Effect” value is on record as “none”, the “GABAA % Agonist Effect” value is 259 ± 11% and the “GABAA Drug Response” value was “+ (potentiation (+) for drug+agonist responses greater than the control agonist peak)”.
In the case of `C=CCCC` [1-pentene], in assay [2], the “NMDA % Direct Effect” value is listed as “none” and the “NMDA % Agonist Effect” value is listed as 69 ± 1%. In assay [3], the “GABAA % Direct Effect” value stood at 2 ± 3%, the “GABAA % Agonist Effect” value turned out to be 453 ± 38% and the “GABAA Drug Response” value was “+ (potentiation (+) for drug+agonist responses greater than the control agonist peak)”.
For `CCCCCCCCCC(=O)OCC` [ethyl decanoate], in assay [2], the “NMDA % Direct Effect” value is given as “none”, the “NMDA % Agonist Effect” value is 98 ± 1% and the “NMDA Drug Response” value is on record as 0 (no response (0) for drug+agonist responses that differ by <10% from the control agonist peak). In addition, in assay [3], the “GABAA % Direct Effect” value is reported as “none”, the “GABAA % Agonist Effect” value was 137 ± 2% and the “GABAA Drug Response” value is “+ (potentiation (+) for drug+agonist responses greater than the control agonist peak)”.
